Reference: patent US8703712B2, “Targeting cancer stem cells with DR5 agonists” (The UAB Research Foundation, priority 2011, dated 2014)

B1: TRAIL: Super Killer TRAIL™ purchased from Alexis Biochemicals; death receptor ligand (protein, UniProt P50591 39-281, looked up)
extracellular domain: TNELKQMQDKYSKSGIACFLKEDDSYWDPNDEESMNSPCWQVKWQLRQLVRKMILRTSEETISTVQEKQQNISPLVRERGPQRVAAHITGTRGRSNTLSSPNSKNEKALGRKINSWESSRSGHSFLSNLHLRNGELVIHEKGFYYIYSQTYFRFQEEIKENTKNDKQMVQYIYKYTSYPDPILLMKSARNSCWSKDAEYGLYSIYQGGIFELKENDRIFVSVTNEHLIDMDHEASFFGAFLVG
modifications: extracellular domain Super Killer TRAIL engineered soluble form
notes: Super Killer TRAIL™ purchased from Alexis Biochemicals; death receptor ligand

Key:
[1] = tested on: 2LMP and SUM159 ALDH+ tumorsphere cells; experiment: Secondary tumorsphere formation; type: cell-based, human; settings: 2LMP and SUM159 sphere cells; TRAIL and 2E12 at concentrations equimolar to TRA-8
Protocol: Bars are normalized relative to untreated control and represent quadruplicate runs. Error bars denote standard deviation (SD).
(§1) • Drugs and Antibodies. Adriamycin and Taxol were purchased from Sigma Aldrich Chemical Co. (St. Louis, Mo.) and prepared as 10 mM stock solutions in distilled H2O or DMSO, respectively. Purified TRA-8 (IgG1) mAb was prepared as described previously (Ichikawa et al., Nat. Med. 7:954-60 (2001) and WO01/83560). Isotype-specific IgG1 control antibody was obtained from Southern Biotechnology Associates (Birmingham, Ala.). Anti-DR4 mAb 2E12 (IgG1, k) was described previously (WO03/37913). Super Killer TRAIL™ was purchased from Alexis Biochemicals (Plymouth Meeting, Pa.). Conjugated antibodies APC mouse anti-human CD44, PE-Cy7 rat anti-mouse CD44, and corresponding isotype control antibodies were purchased from BD Pharmingen (San Jose, Calif.). ALDEFLUOR® kit including diethylaminobenzaldehyde (DEAB) negative control was obtained from StemCell Technologies (Durham, N.C.). Cleaved caspase-8 rabbit mAb and cleaved caspase-3 rabbit mAb were purchased from Cell Signaling (Billerica, Mass.). Secondary antibodies, Alexa tluor 405 goat anti-rabbit IgG and Alexa fluor 647 goat anti-mouse IgG1 were purchased from Invitrogen (Carlsbad, Calif.). • Cells and Cell Culture. The 2LMP subclone of the human breast cancer cell line MDA-MB-231 was maintained in improved MEM supplemented with 10% FBS (Hyclone; Logan, Utah). […] BCSC markers were analyzed on attached bulk cell populations. […] Samples were sorted on a Becton-Dickinson-FACSAriaII™ or analyzed on Becton-Dickinson-LSRII™ flow cytometer (Chicago, Ill.). Data were evaluated using FlowJo software (FlowJo; Ashland, Oreg.). • DR5 Expression and Functional Caspase Activation. […] Samples were analyzed by flow cytometry for DR5 expression on the ALDH^+/CD44^+/CD24^− subpopulation. […]

SUM159 ALDH+ cells = experiment: Ex vivo treatment of sorted BCSC and tumor implantation; type: in vivo, NOD/SCID mice; settings: cells treated ex vivo with 500 nM Adriamycin for 3 hours, implanted into mammary fat pad
Protocol: (§2) FIGS. 14A and 14B are graphs showing ex vivo treatment of sorted BCSCs inhibited tumorigenesis and progression in NOD/SCID mice. The graphs represent average tumor size (product of two diameters).
as §1, with “Calif.).” for “Calif.). ALDEFLUOR® kit including diethylaminobenzaldehyde (DEAB) negative control was obtained from StemCell Technologies (Durham, N.C.). Cleaved caspase-8 rabbit mAb and cleaved caspase-3 rabbit mAb were purchased from Cell Signaling (Billerica, Mass.). Secondary antibodies, Alexa tluor 405 goat anti-rabbit IgG and Alexa fluor 647 goat anti-mouse IgG1 were purchased from Invitrogen (Carlsbad, Calif.). • Cells and Cell Culture. The 2LMP subclone of the human breast cancer cell line MDA-MB-231 was maintained in improved MEM supplemented with 10% FBS (Hyclone; Logan, Utah).”

2LMP ALDH+ cells [2] = experiment: as above; type: in vivo, NOD/SCID mice; settings: cells treated ex vivo with 500 nM Adriamycin for 3 hours, 4×10^4 cells into mammary fat pad; by day 51
Protocol: as §2
as §1, with “Calif.).” for “Calif.). ALDEFLUOR® kit including diethylaminobenzaldehyde (DEAB) negative control was obtained from StemCell Technologies (Durham, N.C.). Cleaved caspase-8 rabbit mAb and cleaved caspase-3 rabbit mAb were purchased from Cell Signaling (Billerica, Mass.). Secondary antibodies, Alexa tluor 405 goat anti-rabbit IgG and Alexa fluor 647 goat anti-mouse IgG1 were purchased from Invitrogen (Carlsbad, Calif.). • Cells and Cell Culture. The 2LMP subclone of the human breast cancer cell line MDA-MB-231 was maintained in improved MEM supplemented with 10% FBS (Hyclone; Logan, Utah).”

2LMP ALDH+ cells [3] = experiment: Annexin V-propidium iodide apoptosis assay (flow cytometry); type: cell-based, human; settings: 5 μM MRK003
Protocol: 2LMP ALDH^+ cells were sorted by flow cytometry and treated with MRK003 GSI (or DMSO) for 24 hours followed by TRA-8 (or media) for an additional 24 hours before measuring ATP levels. […] Similar results were found in studies using CSC-enriched cell populations derived from sphere cultures. The results were confirmed using annexin V-propidium iodide assays and flow cytometry to measure apoptosis.

Molecule	inhibition of secondary tumorsphere formation (in words) [1]	mice that developed tumors (SUM159 ALDH+ cells)	mice that developed tumors (2LMP ALDH+ cells [2])	annexin-V-positive (2LMP ALDH+ cells [3])
COc1cccc2c1C(=O)c1c(O)c3c(c(O)c1C2=O)C[C@@](O)(C(=O)CO)C[C@@H]3O[C@H]1C[C@H](N)[C@H](O)[C@H](C)O1 [Adriamycin]	did not completely inhibit	zero out of five	Five out of five	–
CC(=O)O[C@H]1C(=O)[C@@]2(C)[C@H]([C@H](OC(=O)c3ccccc3)[C@]3(O)C[C@H](OC(=O)[C@H](O)[C@@H](NC(=O)c4ccccc4)c4ccccc4)C(C)=C1C3(C)C)[C@]1(OC(C)=O)CO[C@@H]1C[C@@H]2O [Taxol]	did not completely inhibit	–	–	–
O=S1(=O)N[C@@]2(CN1CC(F)(F)F)[C@@H]1CC[C@H]2Cc2ccc(/C=C/CN3CCC(C(F)(F)F)CC3)cc2C1 [MRK003]	–	–	–	36%
B1	only partially inhibitory	–	–	–
